The source of these data is patent US20230167121A1, “SUBSTITUTED {1,2,4,} TRIAZOLO{1,5-A} PYRIMIDINE COMPOUNDS AND USE IN STABILIZING MICROTUBULES” (THE TRUSTEES OF THE UNIVERSITY OF PENNSYLVANIA, priority 2020, published 2023).

For this experiment, the system named is total α-tubulin. Put plainly: cell-based assay of MT-stabilization: total α-tubulin in QBI293 cell lysates by ELISA. Conditions: QBI293, 4 h, Table 4, QB1293 cells, 4 h; for fold induction at 1 µM: read-out: α-Tub l μM (fold-change over control (DMSO)-treated cells); for fold induction at 10 µM: read-out: α-Tub 10 μM (fold-change over control (DMSO)-treated cells). How it is done: All test compounds were evaluated in a previously described cell-based assay of MT-stabilization (see Kovalevich, J., et al. (2016) Characterization of Brain-Penetrant Pyrimidine-Containing Molecules with Differential Microtubule-Stabilizing Activities Developed as Potential Therapeutic Agents for Alzheimer's Disease and Related Tauopathies. J Pharmacol Exp Ther 357, 432-450, incorporated herein by reference), in which compound-dependent changes in tubulin polymerization and total tubulin levels were determined after 4 h of incubation of QBI293 cells with 1 and 10 μM compound via quantification of acetylated α-tubulin and total tubulin in cell lysates by ELISA.
Novel C6 nitrile- and alkyne-substituted triazolopyrimidine examples that have improved in vitro activity relative to previously described examples, with the general structure depicted in Formula I. The activity of the novel C6-nitrile substituted compounds were tested in a previously described cellular assay of MT-stabilization (Kovalevich, J., et al. (2016)). As summarized in Table 2. below, eighteen examples were synthesized and tested. In all cases, these compounds were confirmed to be active Class I triazolopyrimidines. […] Table 2 provides fold-changes in acetylated α-tubulin and total α-tubulin levels in QB1293 cells after 4 h incubation with test compounds at either 1 or 10 μM. Data are expressed as the fold-change relative to vehicle-treated cells. *p<0.05 and **p<0.01 by one-way ANOVA.
Compounds produced according to the preceding synthetic schemes were for microtubule stabilization. Fold-changes in acetylated α-tubulin (AcTub) and α-tubulin (α-Tub) levels in QB1293 cells after 4 h incubation with test compounds at either 1 or 10 μM. Reported values for AcTub and α-Tub represent the fold-change over control (DMSO)-treated cells (*p<0.05 and **p<0.01 by one-way ANOVA); numbers in parentheses represent the fold-change of AcTub over positive control-treated cells (i.e., 100 nM of cevipabulin). Changes of +/−15% of control are deemed to be within the day-to-day assay variability and non-significant.
In general terms: ELISA stands for enzyme-linked immunosorbent assay.

Where a name gives a salt, the structure may show the parent alone.

Take `CNCC#Cc1cc(F)c(-c2c(Cl)nc3ncnn3c2N[C@H](C)C(C)C)c(F)c1` [TAL-637, (R)-5-chloro-6-(2,6-difluoro-4-(3-(methylamino)prop-1-yn-1-yl)phenyl)-N-(3-methylbutan-2-yl)-[1,2,4]triazolo[1,5-a]pyrimidin-7-amine hydrochloride]: the fold induction at 1 µM was determined as 0.96 and the fold induction at 10 µM was found to be 0.96.

Consider `CNCC#Cc1cc(F)c(-c2c(Cl)nc3ncnn3c2N[C@H](C)C(C)(C)C)c(F)c1` [TAL-638, (R)-5-chloro-6-(2,6-difluoro-4-(3-(methylamino)prop-1-yn-1-yl)phenyl)-N-(3,3-dimethylbutan-2-yl)-[1,2,4]triazolo[1,5-a]pyrimidin-7-amine hydrochloride], for which the fold induction at 1 µM is 0.93 and the fold induction at 10 µM turned out to be 1.

For the compound `C[C@H](Nc1c(-c2c(F)cc(C#CCCO)cc2F)c(Cl)nc2ncnn12)C(F)(F)F` [TAL-641, (S)-4-(4-(5-chloro-7-((1,1,1-trifluoropropan-2-yl)amino)-[1,2,4]triazolo[1,5-a]pyrimidin-6-yl)-3,5-difluorophenyl)but-3-yn-1-ol], the fold induction at 1 µM was found to be 0.98.

Regarding `C[C@H](Nc1c(-c2c(F)cc(C#CCCCO)cc2F)c(Cl)nc2ncnn12)C(F)(F)F` [TAL-642, (S)-5-(4-(5-chloro-7-((1,1,1-trifluoropropan-2-yl)amino)-[1,2,4]triazolo[1,5-a]pyrimidin-6-yl)-3,5-difluorophenyl)pent-4-yn-1-ol], the fold induction at 1 µM stood at 0.93 and the fold induction at 10 µM was 0.87.

On to `C[C@@H](Nc1c(-c2c(F)cc(C#CCCN(C)C)cc2F)c(Cl)nc2ncnn12)C(C)(C)C` [TAL-664, (R)-5-chloro-6-(4-(4-(dimethylamino)but-1-yn-1-yl)-2,6-difluorophenyl)-N-(3,3-dimethylbutan-2-yl)-[1,2,4]triazolo[1,5-a]pyrimidin-7-amine], for which the fold induction at 1 µM turned out to be 0.88 and the fold induction at 10 µM was 0.96.
